# Measurements taken from patent US20230078265A1, “METHODS AND COMPOSITIONS FOR EDITING NUCLEOTIDE SEQUENCES” (The Broad Institute, Inc., priority 2019, published 2023).
# Assays:
# DNA = settings: mutation relative to canonical SpCas9, SEQ ID NO: 18; cited from earlier work
# [1] = tested on: 5′-Cy5-labeled dsDNA substrates; assay: In vitro TPRT (prime editing) primer extension assay, denaturing urea PAGE; assay type: biochemical; settings: standard gRNA (gRNA_0, lane 3), substrates not pre-nicked
# Method: All reactions are with M-MLV RT.
# Fluorescently labeled (Cy5) DNA targets were used as substrates, and were pre-nicked in this set of experiments. […] Then, the fluorescently labeled DNA substrate was added along with dNTPs and the RT enzyme. After 1 hour of incubation at 37° C., the reaction products were analyzed by denaturing urea-polyacrylamide gel electrophoresis (PAGE).
# However, the DNA substrates are not pre-nicked in this set of experiments. […] The reaction products were analyzed by denaturing urea-polyacrylamide gel electrophoresis (PAGE).
# Reactions were incubated at 37° C. for 1 hour, then analyzed by denaturing urea PAGE and visualized for Cy5 fluorescence.
# Reactions were allowed to proceed at 37° C. for 1 hour prior to separation by denaturing urea PAGE and visualization by Cy5 fluorescence.
Substance,Function/Characteristic (as reported) (DNA),cleavage of the DNA strand by the nickase [1]
1099-1368 deletion: SpCas9 mutation relative to SEQ ID NO: 18,No nuclease activity,–
D10A: SpCas9 mutation relative to SEQ ID NO: 18,Nickase mutant which cleaves the protospacer,–
Cas9 nickase: Cas9 nickase (SpyCas9 H840A mutant),–,efficiently cleaves
H840A: SpCas9 mutation relative to SEQ ID NO: 18,Nickase mutant which cleaves the non-protospacer,–
